Results reported in publication PMC12434534, “Synthesis and Antiviral Evaluation of Unexplored Dioxolane-Derived 7‑Deazapurine Nucleoside Analogues against Epstein–Barr Virus (EBV)” (ACS Medicinal Chemistry Letters, 2025).
Read-outs that look alike come from different tables or passages of the source.

Experiments:
[1] = Cytotoxicity in P3HR-1 cells (XTT or MTT assay); format: cell-based; conditions: human
HIV-FL = assay: microbe, parasite or virus in culture
Procedure: First, TZM-GFP cells were seeded in the 96-well plate (10 000/well), and after 24 h, selected compounds and HIV FL virus (MOI = 0.1) were added to the plate. […] At 48 h post-infection (hpi), GFP production due to infection was measured by Cytation 5, and a 50% reduction in efficacy (EC50) and cell viability (CC50) were determined using GraphPad software (San Diego, CA, USA, www.graphpad.com). […]
(10,000/well), and after 24 h, selected compounds and HIV FL (MOI=0.1) virus were added to the […]
plate. […] At 48 h post-infection (hpi), the GFP cells were measured by Cytation 5, and a 50% reduction in efficacy (EC50) and cell viability (CC50) was determined using GraphPad software (San Diego, California, www.graphpad.com). […]
(§1) Evaluation of Cytotoxicity: The cytotoxic effects of test compounds for P3HR1 and TZN-GFP cells were determined by CellTiter 96 Non-Radioactive Cell Proliferation assay system (Promega) using either 2,3-Bis-(2-Methoxy-4-nitro-5-sulfophenyl)-2H-tetrazolium-5-carboxanilide, disodium salt (XTT) or 3- (4,5-dimethylthiazol-2-yl)-2,5-diphenyltetrazolium bromide (MTT) methods under the same conditions as the antiviral assay but in the absence virus. Cells were seeded at a density of 1 x 105 (P3HR-1) or 2 x 104 (TZM-GFP) cells per well in 96-well plates and […]

[2] = Cytotoxicity in TZM-GFP cells (XTT or MTT assay); format: cell-based; conditions: human; concentration reducing cellular viability by 50% after 48 h, XTT or MTT assay; TZM-GFP cells
Procedure: (§2) plate. […] At 48 h post-infection (hpi), the
(§3) Blood and Tissue Kit. The DNA volume was 30 μL. DNA concentration (ng/μL) was determined with a Nanophotometer (IMPLEN). The Real -time PCR was performed using QuantiTect Sybr […]
(§4) Green PCR Kit. […] The primers were
(§5) The 20 μL PCR sample contained 100 ng
(§6) (Restriction Enzyme, BioLabs) and RNase -free water. The PCR program consisted of 1 cycle at […]
(§7) allowed to incubate overnight. On the second day, different concentrations of test compounds were […]
(§8) added to respective cells. Following 4 days of incubation at 37 °C in a CO2 incubator, the MTT or […]
(§9) XTT reagent was added, and the cells were incubated for 3 hours at 37 °C. Subsequently, the […]
(§10) absorbance of the samples was measured using a microplate reader (Biotek). The cytotoxic […]
(§11) concentration (CC50) was determined based on the viability of mock-infected cells. […]

EBV = assay: Anti-EBV assay: reduction of EBV DNA synthesis (qPCR) in TPA-induced P3HR-1 cells; conditions: for EC50: human gammaherpesvirus 4, P3HR-1, 120 h, read-out: EC50, Antiviral Activity against EBV (in P3HR-1 Cells); for EC90: human gammaherpesvirus 4, P3HR-1, read-out: EC90, Antiviral Activity against EBV (in P3HR-1 Cells); for SI (CC50/EC50), EBV: selectivity index = CC50/EC50, P3HR-1 cells
Procedure: The antiviral potency of all synthesized nucleosides was evaluated by in-vitro cell-based assays. P3HR-1 cells were seeded in 24-well plates at a density of 1 × 10^6 cells/mL. EBV replication was induced by adding 25 ng/mL 12-O-tetradecanoylphorbol 13-acetate (TPA) (Sigma–Aldrich, Bornem, Belgium) to the growing cells. The next day, cells were washed and resuspended in fresh medium in the presence or absence of various concentrations of synthesized nucleosides (12–19). Ganciclovir (GCV) was used as antiviral control. On day 5 post-induction, total cellular DNA was extracted (QIAamp DNA kit; Qiagen Benelux B.V, Venlo, The Netherlands), and viral DNA was quantified by quantitative PCR (qPCR) using an ABI Prism 7500 Sequence Detection System (Applied Biosystems, Foster City, CA). Thermocycling conditions for all qPCRs were done following the manufacturer’s instructions. […] The results were obtained as a means from at least three independent experiments. The selectivity index of the compound was determined by the ratio of CC50/EC50. For both efficacy and cytotoxicity assays, the 50% reduction in efficacy (EC50) and cell viability (CC50) was determined using GraphPad software (GraphPad, San Diego, CA, USA, www.graphpad.com).
0.2, 0.04, 0 μM). TPA was removed after 24 h, and the same concentration of compounds was […]
replaced. […]
Real-time PCR detection of viral DNA: EBV DNA was extracted with a QIAGEN Dneasy Blood and Tissue Kit. The DNA volume was 30 μL. DNA concentration (ng/μL) was determined with a Nanophotometer (IMPLEN). The Real -time PCR was performed using QuantiTect Sybr Green PCR Kit. The amplicon was a 71 bp portion of the EBNA1 gene. The primers were […]
as §5
DNA, 10 μL Universal PCR Master Mix, primer (0.5 uM final concentration), 1 μL BamH I-HF (Restriction Enzyme, BioLabs) and RNase -free water. The PCR program consisted of 1 cycle at 50 °C, 2 minutes of UNG pretreatment, followed by 1 cycle at 95 °C for 15 minutes. Then 40 cycles of 94 °C for 15 seconds, 55 °C for 30 seconds, and 72 °C for 30 seconds were carried out.
as §1

TZM-GFP cells = assay: Cytotoxicity in TZM-GFP cells (XTT or MTT assay); format: cell-based
Procedure: as §2, §3, §4, §5, §6, §7, §8, §9, §10, §11

[3] = concentration reducing cellular viability by 50% after 48 h, XTT or MTT assay, P3HR-1 cells, read-out: CC50 (P3HR-1 Cells)
[4] = Human immunodeficiency virus 1, read-out: EC50, Antiviral Activity against HIV-FL (in TZM-GFP Cells)

Row | SMILES | CC50 at 48 h [1, 3] [µM] | EC50 (HIV-FL; [4]) [µM] | CC50 at 48 h [2] [µM] | antiviral activity against EBV (in words) (EBV; P3HR-1 cells) | EC50 (EBV) [µM] | EC90 (EBV) [µM] | potency against EBV relative to ganciclovir (times more potent) (EBV; EC50 compared with GCV, P3HR-1 cells) | SI (CC50/EC50), EBV (EBV) | CC50 at 48 h [1] [µM] | EC50 (HIV-FL; read-out: EC50, Antiviral Activity against HIV-FL (in TZM-GFP Cells), 48 hpi, MOI = 0.1, TZM-GFP cells, mean of at least three experiments) [µM] | SI (CC50/EC50), HIV-FL (HIV-FL; selectivity index = CC50/EC50, TZM-GFP cells) | CC50 (TZM-GFP cells) [µM]
1 | Nc1ncnc2c1ccn2[C@H]1CO[C@@H](CO)O1 [Compound 12] | 91.3 | 5.85 ± 1.01 | > 100 | inactive | > 25 | > 25 | – | – | – | – | – | –
2 | Nc1ncnc2c1c(F)cn2[C@H]1CO[C@@H](CO)O1 [Compound 13] | 71.3 ± 25.6 | 3.96 ± 0.39 | > 100 | – | 1.2 ± 1.8 | 2.28 ± 1.29 | – | – | – | – | – | –
3 | Nc1ncnc2c1c(Cl)cn2[C@H]1CO[C@@H](CO)O1 [Compound 14] | > 100 | 28.7 ± 0.45 | 88 | – | 12.5 ± 0.8 | > 25 | – | – | – | – | – | –
4 | Nc1ncnc2c1c(Br)cn2[C@H]1CO[C@@H](CO)O1 [Compound 15, 7-Bromo-deazapurine-D-dioxolane nucleoside] | 49.9 | 20.8 ± 0.25 | 41.9 | potent anti-EBV activity | 0.17 | 0.54 ± 0.36 | 14 | 294 | – | – | – | –
5 | Nc1ncnc2c1c(I)cn2[C@H]1CO[C@@H](CO)O1 [Compound 16] | 21.2 | 10.3 ± 0.39 | 11.9 | potent anti-EBV activity | 0.47 ± 0.2 | 1.5 ± 0.09 | – | 45 | – | – | – | –
6 | Nc1nc(N)c2ccn([C@H]3CO[C@@H](CO)O3)c2n1 [Compound 17] | > 100 | – | – | – | 11.9 ± 0.3 | – | – | >8 | – | – | – | –
7 | Nc1nc(F)nc2c1ccn2[C@H]1CO[C@@H](CO)O1 [Compound 18] | 91.7 | – | – | – | 15.5 ± 3.7 | > 23.9 | – | 6 | – | – | – | –
8 | CNc1nc(N)nc2c1ccn2[C@H]1CO[C@@H](CO)O1 [Compound 19] | 13.3 | – | – | inactive | > 25 | – | – | – | – | – | – | –
9 | Nc1nc(O)c2ncn(COC(CO)CO)c2n1 [GCV, ganciclovir, reference compound] | – | – | – | – | 2.5 ± 0.22 | 16.2 ± 0.21 | – | >40 | > 100 | – | – | –
10 | C=Cc1cn([C@@H]2CO[C@H](CO)O2)c(=O)[nH]c1=O [L-HDVD, reference compound] | > 100 | – | – | – | 0.12 ± 0.01 | 0.52 ± 0.04 | – | >833 | – | – | – | –
11 | Cc1[nH]c2ccccc2c1CC(=O)N[C@@H](Cc1ccccc1)C(=O)N(C)c1ccccc1 [PF-74, reference compound] | – | – | – | – | – | – | – | – | – | 0.6 ± 0.05 | >166 | > 100
